Assay results reported in ChEMBL document CHEMBL1201862, “PubChem BioAssay data set” (2004).
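Method: 48-hour compound exposure of cells in 96-well plates, five concentrations, linear interpolation of endpoints. GI50: concentration for 50% inhibition of growth.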 The source made the active and inactive calls. Rule as the data show it: active = GI50 up to about 1.1 µM and inactive = higher.

Columns and labels:
Test in all cases: inhibition of tumour cell growth, NCI panel, 48 h
EKVX = tested on: EKVX
OVCAR-4 = tested on: OVCAR-4
MDA-MB-231 = tested on: MDA-MB-231
HT-29 = tested on: HT-29
UACC-62 = tested on: UACC-62
SNB-19 = tested on: SNB-19
HOP-92 = tested on: HOP-92
SK-MEL-5 = tested on: SK-MEL-5
OVCAR-8 = tested on: OVCAR-8
CAKI-1 = tested on: CAKI-1
TK-10 = tested on: TK-10
RPMI-8226 = tested on: RPMI-8226
HL-60 = tested on: HL-60
SF-539 = tested on: SF-539
HCC 2998 = tested on: HCC 2998
Malme-3M = tested on: Malme-3M
COLO 205 = tested on: COLO 205
MCF7 = tested on: MCF7
SK-MEL-28 = tested on: SK-MEL-28
NCI-H23 = tested on: NCI-H23

Measured: GI50

c1ccc2c(c1)-c1ccccc1C2N1CC2CCC(CC2)C1
inactive: EKVX 21.7 µM | OVCAR-4 31.9 µM | MDA-MB-231 18.8 µM | HT-29 16.8 µM | UACC-62 19.9 µM | SNB-19 29.4 µM | HOP-92 17.5 µM | SK-MEL-5 17.1 µM | OVCAR-8 30 µM | CAKI-1 32 µM | TK-10 37.4 µM | RPMI-8226 20.4 µM | HL-60 2.92 µM | SF-539 24.1 µM | HCC 2998 16.9 µM | Malme-3M 10.1 µM | COLO 205 20.5 µM | MCF7 17.5 µM | SK-MEL-28 33.3 µM | NCI-H23 17.3 µM
